In patent publication US20210277057A1, “AD[…]-OPIATE RECEPTOR PEPTIDE COMPOUNDS” (Cytogel Pharma, LLC, priority 2009, published 2021):
Where a name gives a salt, the structure may show the parent alone.

Assays:
[1] = test system: rat; assay: standard rat tail flick assay; format: in vivo; conditions: suspension in 20% PEG
Description: The assay was the standard rat tail flick assay. Test agents were administered intravenously as suspensions in 20% PEG.

[2] = test system: delta receptors; assay: binding to delta receptors relative to mu opiate receptor; conditions: delta versus mu opiate receptor
[3] = test system: kappa receptors; assay: binding to kappa receptors relative to mu opiate receptor; conditions: kappa versus mu opiate receptor

NC(Cc1ccc(O)cc1)C(=O)NC1CCCCNC(=O)C(Cc2ccccc2)NC(=O)C(Cc2c[nH]c3ccccc23)NC1=O [CYT-1010 HCL, H-Tyr-c-[D-Lys-Trp-Phe]]
Activity % MPE Ave ([1]; IV dose 4 mg/kg, listed as HCL, 4 mg/kg): 0.0%

NC(Cc1ccc(O)cc1)C(=O)NC1CCCCNC(=O)C(Cc2ccccc2)NC(=O)C(Cc2c[nH]c3ccccc23)NC1=O [CYT-1010 TFA, H-Tyr-c-[D-Lys-Trp-Phe]]
Activity % MPE Ave ([1]; IV dose 4 mg/kg, listed as TFA, 4 mg/kg): 25.4% | Activity % MPE Ave ([1]; IV dose 8 mg/kg): 71.2%

H-Tyr-Pro-Trp-Phe-NH2 [SEQ ID NO:1]
weaker binding to delta receptors (selectivity for mu opiate receptor) [2]: over 4000 fold | weaker binding to kappa receptors (selectivity for mu opiate receptor) [3]: over 15,000 fold

NC(Cc1ccc(O)cc1)C(=O)NC1CCCCNC(=O)C(Cc2ccccc2)NC(=O)C(Cc2c[nH]c3ccccc23)NC1=O [CYT-1010 Lactate, H-Tyr-c-[D-Lys-Trp-Phe]]
Activity % MPE Ave ([1]; IV dose 2 mg/kg, listed as Lactate, 2 mg/kg): 1.4%

NC(Cc1ccc(O)cc1)C(=O)NC1CCCCNC(=O)C(Cc2ccccc2)NC(=O)C(Cc2c[nH]c3ccccc23)NC1=O [CYT-1010 Acetate, H-Tyr-c-[D-Lys-Trp-Phe]]
Activity % MPE Ave ([1]; IV dose 2 mg/kg, listed as Acetate, 2 mg/kg): 50.0% | Activity % MPE Ave ([1]; IV dose 4 mg/kg, listed as Acetate, 4 mg/kg): 83.3%

NC(Cc1ccc(O)cc1)C(=O)NC1CCCCNC(=O)C(Cc2ccccc2)NC(=O)C(Cc2c[nH]c3ccccc23)NC1=O [CYT-1010 Aspartate, H-Tyr-c-[D-Lys-Trp-Phe]]
Activity % MPE Ave ([1]; IV dose 2 mg/kg, listed as Aspartate, 2 mg/kg): 7.4%

NC(Cc1ccc(O)cc1)C(=O)NC1CCCCNC(=O)C(Cc2ccccc2)NC(=O)C(Cc2c[nH]c3ccccc23)NC1=O [CYT-1010 Free Base, H-Tyr-c-[D-Lys-Trp-Phe]]
Activity % MPE Ave ([1]; IV dose 2 mg/kg, listed as Free Base, 2 mg/kg): 77.7% | Activity % MPE Ave ([1]; IV dose 4 mg/kg, listed as Free Base, 4 mg/kg): 100.0%
